Experiments:
[1] = molecular target: Rho-associated protein kinase 1 (Homo sapiens, UniProt Q13464); assay: Inhibition of ROCK1 (unknown origin)
[2] = molecular target: Rho-associated protein kinase 2 (Homo sapiens, UniProt O75116); assay: Inhibition of ROCK2 (unknown origin)
Homo sapiens = species: Homo sapiens; assay: Selectivity ratio of IC50 for inhibition of ROCK2 (unknown origin) to IC50 for inhibition of ROCK1 (unknown origin)

Chain of Rho-associated protein kinase 2 (O75116 whole entry): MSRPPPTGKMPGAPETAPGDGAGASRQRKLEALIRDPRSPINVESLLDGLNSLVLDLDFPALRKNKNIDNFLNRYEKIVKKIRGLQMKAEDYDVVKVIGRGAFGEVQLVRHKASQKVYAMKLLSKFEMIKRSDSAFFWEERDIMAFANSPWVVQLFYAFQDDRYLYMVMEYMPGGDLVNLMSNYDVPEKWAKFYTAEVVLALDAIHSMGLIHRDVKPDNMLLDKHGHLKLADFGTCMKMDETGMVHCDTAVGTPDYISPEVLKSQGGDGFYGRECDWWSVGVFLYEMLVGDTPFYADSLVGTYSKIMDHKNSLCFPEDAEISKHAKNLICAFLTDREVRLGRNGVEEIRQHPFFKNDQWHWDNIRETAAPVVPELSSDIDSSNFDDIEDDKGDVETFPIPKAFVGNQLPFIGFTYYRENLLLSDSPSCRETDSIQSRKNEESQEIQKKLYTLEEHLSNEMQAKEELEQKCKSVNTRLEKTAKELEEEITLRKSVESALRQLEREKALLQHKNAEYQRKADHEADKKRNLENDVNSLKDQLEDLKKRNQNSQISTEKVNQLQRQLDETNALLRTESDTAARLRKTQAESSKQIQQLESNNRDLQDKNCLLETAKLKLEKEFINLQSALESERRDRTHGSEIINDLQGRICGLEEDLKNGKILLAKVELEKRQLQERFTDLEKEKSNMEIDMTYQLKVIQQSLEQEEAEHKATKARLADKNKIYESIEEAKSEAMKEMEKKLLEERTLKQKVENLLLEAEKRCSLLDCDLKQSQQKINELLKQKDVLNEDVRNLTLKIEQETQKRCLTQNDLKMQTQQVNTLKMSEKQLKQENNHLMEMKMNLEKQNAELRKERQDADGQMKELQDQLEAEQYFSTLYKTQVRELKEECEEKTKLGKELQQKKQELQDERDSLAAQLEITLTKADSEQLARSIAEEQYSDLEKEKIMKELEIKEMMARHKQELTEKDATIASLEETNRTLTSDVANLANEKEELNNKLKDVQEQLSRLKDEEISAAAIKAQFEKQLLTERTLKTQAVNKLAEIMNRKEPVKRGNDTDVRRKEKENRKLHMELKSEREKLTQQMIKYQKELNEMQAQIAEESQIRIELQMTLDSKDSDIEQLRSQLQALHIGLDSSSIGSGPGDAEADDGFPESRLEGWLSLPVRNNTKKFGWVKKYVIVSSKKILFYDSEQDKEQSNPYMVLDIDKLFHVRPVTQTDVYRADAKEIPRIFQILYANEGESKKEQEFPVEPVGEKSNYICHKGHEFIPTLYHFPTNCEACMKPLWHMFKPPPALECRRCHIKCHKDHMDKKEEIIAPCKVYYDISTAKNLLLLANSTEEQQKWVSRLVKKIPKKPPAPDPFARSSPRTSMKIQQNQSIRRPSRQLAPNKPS
Chain of Rho-associated protein kinase 1 (Q13464 whole entry): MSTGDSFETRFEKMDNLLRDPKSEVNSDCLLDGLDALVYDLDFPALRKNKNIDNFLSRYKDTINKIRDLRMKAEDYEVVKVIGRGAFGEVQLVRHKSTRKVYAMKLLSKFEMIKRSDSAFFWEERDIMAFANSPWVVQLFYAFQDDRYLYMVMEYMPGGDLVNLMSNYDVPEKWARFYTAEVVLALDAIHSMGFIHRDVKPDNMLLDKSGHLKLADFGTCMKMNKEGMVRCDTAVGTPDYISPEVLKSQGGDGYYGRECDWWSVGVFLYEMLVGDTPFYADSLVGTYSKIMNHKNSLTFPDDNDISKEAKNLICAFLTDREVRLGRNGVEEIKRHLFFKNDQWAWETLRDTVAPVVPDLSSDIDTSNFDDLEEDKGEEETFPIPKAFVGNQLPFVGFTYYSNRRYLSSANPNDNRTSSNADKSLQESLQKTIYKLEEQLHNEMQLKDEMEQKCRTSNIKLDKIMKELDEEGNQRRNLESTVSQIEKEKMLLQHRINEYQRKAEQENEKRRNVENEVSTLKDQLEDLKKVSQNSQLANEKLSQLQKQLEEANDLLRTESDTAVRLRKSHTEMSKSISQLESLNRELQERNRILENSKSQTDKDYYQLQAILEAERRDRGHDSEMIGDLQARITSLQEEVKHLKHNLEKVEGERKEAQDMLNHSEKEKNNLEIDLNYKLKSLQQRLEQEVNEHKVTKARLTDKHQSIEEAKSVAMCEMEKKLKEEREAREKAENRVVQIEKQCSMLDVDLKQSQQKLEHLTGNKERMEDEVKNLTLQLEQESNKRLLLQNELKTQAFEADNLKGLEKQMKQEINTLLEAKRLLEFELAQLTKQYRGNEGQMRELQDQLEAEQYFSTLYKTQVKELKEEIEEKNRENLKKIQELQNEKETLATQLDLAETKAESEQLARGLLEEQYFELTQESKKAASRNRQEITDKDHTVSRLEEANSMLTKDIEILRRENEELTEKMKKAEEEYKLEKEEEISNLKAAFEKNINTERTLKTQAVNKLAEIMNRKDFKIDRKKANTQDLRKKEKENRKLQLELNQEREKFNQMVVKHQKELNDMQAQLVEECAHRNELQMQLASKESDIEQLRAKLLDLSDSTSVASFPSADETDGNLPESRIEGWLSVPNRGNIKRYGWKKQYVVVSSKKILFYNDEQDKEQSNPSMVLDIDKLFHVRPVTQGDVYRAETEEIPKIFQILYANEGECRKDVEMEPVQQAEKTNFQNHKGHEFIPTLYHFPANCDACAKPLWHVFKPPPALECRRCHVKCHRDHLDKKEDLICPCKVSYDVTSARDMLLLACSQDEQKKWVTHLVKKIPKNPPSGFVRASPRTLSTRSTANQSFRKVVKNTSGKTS

SMILES | IC50 [1] [nM] | IC50 [2] [nM] | Ratio IC50 (Homo sapiens)
CC(C)Oc1cccc(NC2CCN(c3ccc(-c4n[nH]c(=O)c5ccccc45)cc3)C2=O)c1 (centres undefined) | 380 | 18 | 
O=C1C(NC2CCCC2)CCN1c1ccc(-c2n[nH]c(=O)c3ccccc23)cc1 (centres undefined) | > 2000 | 1770 | 
O=C1C(c2ccc(-c3n[nH]c(=O)c4ccccc34)cc2)CCN1c1ccccc1 (centres undefined) | > 2000 | 370 | 
O=C1C(Nc2ccccc2)CCN1c1ccc(-c2n[nH]c(=O)c3ccccc23)cc1 (centres undefined) | 950 | 34 | 
O=C1C(Nc2cccc(OC(F)F)c2)CCN1c1ccc(-c2n[nH]c(=O)c3ccccc23)cc1 (racemic) | 330 | 2 | 
CS(=O)(=O)c1cccc(NC2CCN(c3ccc(-c4n[nH]c(=O)c5ccccc45)cc3)C2=O)c1 (centres undefined) | 430 | 16 | 
O=C1C(Nc2cccc(OC(F)F)c2)CCN1c1ccc(-c2n[nH]c(=O)c3ccccc23)cc1 (stereo in doubt; 21) | 990 | 15 | 
O=c1[nH]nc(-c2ccc(-n3ncn(Cc4ccccc4)c3=O)cc2)c2ccccc12 | > 2000 | 300 | 
Cc1nc2ccc(NC3CCN(c4ccc(-c5n[nH]c(=O)c6ccccc56)cc4)C3=O)cc2s1 (centres undefined) | 115 | 7.4 | 
O=C1C(NCc2ccccc2)CCN1c1ccc(-c2n[nH]c(=O)c3ccccc23)cc1 (centres undefined) | > 2000 | 1400 | 
O=C1N(Cc2ccccc2)CCN1c1ccc(-c2n[nH]c(=O)c3ccccc23)cc1 | > 2000 | 56 | 
O=C1N(c2ccccc2)CCN1c1ccc(-c2n[nH]c(=O)c3ccccc23)cc1 | 240 | 5.2 | 
O=C1C(c2ccccc2)CCN1c1ccc(-c2n[nH]c(=O)c3ccccc23)cc1 (centres undefined) | > 2000 | 350 | 
O=C1C(Nc2cccc(OC(F)(F)F)c2)CCN1c1ccc(-c2n[nH]c(=O)c3ccccc23)cc1 (centres undefined) | 270 | 5.6 | 
COc1cccc(NC2CCN(c3ccc(-c4n[nH]c(=O)c5ccccc45)cc3)C2=O)c1 (centres undefined) | 1050 | 23 | 
O=C1C(Oc2cccc(OC(F)(F)F)c2)CCN1c1ccc(-c2n[nH]c(=O)c3ccccc23)cc1 (centres undefined) | 100 | 6.3 | 
O=C(Nc1ccc(-c2n[nH]c(=O)c3ccccc23)cc1)N1CCc2ccccc21 |  | 1 | 20
O=C1OC(c2ccccc2)CN1c1ccc(-c2n[nH]c(=O)c3ccccc23)cc1 (centres undefined) | 230 | 60 | 
O=C(Cc1ccc(-c2n[nH]c(=O)c3ccccc23)cc1)N1CCc2ccccc21 | 340 | 7 | 
O=C1C(Nc2cccc(OC(F)F)c2)CCN1c1ccc(-c2n[nH]c(=O)c3ccccc23)cc1 (stereo in doubt; 22) | 200 | 2.5 | 
O=C1N(c2ccc(-c3n[nH]c(=O)c4ccccc34)cc2)CCN1c1cccnc1 | 200 | 19 | 
O=C1CC(c2ccccc2)CN1c1ccc(-c2n[nH]c(=O)c3ccccc23)cc1 (centres undefined) | 1520 | 490 | 
